Values quoted from earlier work in article PMC9851200, “Multiparameter phenotypic screening for endogenous TFEB and TFE3 translocation identifies novel chemical series modulating lysosome function” (Autophagy, 2022).

How the values were obtained:
Parameters in all cases: method as in original PKIS2 published data
[1] = target: T1, kinases (KINOMEscan panel) (Homo sapiens, UniProt O15075); settings: Published KINOMEscan; ref original PKIS2 published data; cited from earlier work
T1 sequence (O15075 1-740): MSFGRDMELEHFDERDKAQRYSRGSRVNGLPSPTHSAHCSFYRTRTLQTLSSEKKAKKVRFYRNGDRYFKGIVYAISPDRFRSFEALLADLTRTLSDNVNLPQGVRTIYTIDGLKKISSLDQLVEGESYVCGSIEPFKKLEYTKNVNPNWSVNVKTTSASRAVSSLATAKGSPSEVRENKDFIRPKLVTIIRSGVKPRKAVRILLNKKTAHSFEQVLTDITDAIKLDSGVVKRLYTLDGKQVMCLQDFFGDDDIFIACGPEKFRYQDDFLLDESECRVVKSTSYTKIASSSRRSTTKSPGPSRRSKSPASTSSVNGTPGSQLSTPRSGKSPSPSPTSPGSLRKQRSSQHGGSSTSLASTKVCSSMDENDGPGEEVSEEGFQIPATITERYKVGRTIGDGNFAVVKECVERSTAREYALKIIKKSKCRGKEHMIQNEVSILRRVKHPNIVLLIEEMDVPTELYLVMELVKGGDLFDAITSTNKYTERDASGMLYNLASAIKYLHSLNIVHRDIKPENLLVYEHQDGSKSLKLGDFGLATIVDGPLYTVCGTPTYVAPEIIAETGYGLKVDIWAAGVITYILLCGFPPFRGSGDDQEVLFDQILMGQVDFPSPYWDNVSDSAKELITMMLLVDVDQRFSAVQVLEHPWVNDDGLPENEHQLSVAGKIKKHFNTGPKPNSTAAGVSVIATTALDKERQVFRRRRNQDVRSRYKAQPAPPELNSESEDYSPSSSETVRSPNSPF

[2] = target: kinases (KINOMEscan panel) (Homo sapiens, UniProt P07949); settings: kinase RET; Published KINOMEscan; ref original PKIS2 published data; cited from earlier work
Sequence of kinases (KINOMEscan panel) (Homo sapiens, UniProt P07949) (P07949 29-1114): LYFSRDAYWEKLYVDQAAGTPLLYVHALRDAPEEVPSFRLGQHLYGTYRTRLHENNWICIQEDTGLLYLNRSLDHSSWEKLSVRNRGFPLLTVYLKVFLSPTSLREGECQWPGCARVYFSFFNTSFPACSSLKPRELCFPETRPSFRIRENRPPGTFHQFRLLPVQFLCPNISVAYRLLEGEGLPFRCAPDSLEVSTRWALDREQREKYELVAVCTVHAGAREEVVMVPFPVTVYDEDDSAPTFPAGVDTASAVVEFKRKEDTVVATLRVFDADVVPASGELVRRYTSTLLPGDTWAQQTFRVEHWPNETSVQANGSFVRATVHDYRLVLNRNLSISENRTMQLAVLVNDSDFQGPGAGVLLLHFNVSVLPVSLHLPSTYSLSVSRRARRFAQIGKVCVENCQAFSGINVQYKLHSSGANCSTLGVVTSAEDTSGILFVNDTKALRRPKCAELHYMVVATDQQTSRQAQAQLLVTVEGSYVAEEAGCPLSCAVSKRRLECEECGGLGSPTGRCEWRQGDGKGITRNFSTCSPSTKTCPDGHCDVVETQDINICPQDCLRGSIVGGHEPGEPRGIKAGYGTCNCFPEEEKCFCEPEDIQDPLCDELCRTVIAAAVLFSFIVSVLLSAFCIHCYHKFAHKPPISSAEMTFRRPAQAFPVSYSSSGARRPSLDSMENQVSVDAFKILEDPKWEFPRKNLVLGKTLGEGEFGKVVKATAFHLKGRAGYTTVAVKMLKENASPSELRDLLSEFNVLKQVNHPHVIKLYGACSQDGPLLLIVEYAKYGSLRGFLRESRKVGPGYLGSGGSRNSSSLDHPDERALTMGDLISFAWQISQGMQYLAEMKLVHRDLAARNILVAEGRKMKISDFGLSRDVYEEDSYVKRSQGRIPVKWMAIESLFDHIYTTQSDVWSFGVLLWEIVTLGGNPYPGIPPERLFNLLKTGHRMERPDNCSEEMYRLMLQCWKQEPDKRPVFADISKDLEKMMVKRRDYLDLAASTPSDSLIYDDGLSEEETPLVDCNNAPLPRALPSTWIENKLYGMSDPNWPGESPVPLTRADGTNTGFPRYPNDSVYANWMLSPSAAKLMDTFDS

[3] = target: kinases (KINOMEscan panel) (Homo sapiens, UniProt P32298); settings: kinase GRK4; Published KINOMEscan; ref original PKIS2 published data; cited from earlier work
Sequence of kinases (KINOMEscan panel) (Homo sapiens, UniProt P32298) (P32298 whole entry): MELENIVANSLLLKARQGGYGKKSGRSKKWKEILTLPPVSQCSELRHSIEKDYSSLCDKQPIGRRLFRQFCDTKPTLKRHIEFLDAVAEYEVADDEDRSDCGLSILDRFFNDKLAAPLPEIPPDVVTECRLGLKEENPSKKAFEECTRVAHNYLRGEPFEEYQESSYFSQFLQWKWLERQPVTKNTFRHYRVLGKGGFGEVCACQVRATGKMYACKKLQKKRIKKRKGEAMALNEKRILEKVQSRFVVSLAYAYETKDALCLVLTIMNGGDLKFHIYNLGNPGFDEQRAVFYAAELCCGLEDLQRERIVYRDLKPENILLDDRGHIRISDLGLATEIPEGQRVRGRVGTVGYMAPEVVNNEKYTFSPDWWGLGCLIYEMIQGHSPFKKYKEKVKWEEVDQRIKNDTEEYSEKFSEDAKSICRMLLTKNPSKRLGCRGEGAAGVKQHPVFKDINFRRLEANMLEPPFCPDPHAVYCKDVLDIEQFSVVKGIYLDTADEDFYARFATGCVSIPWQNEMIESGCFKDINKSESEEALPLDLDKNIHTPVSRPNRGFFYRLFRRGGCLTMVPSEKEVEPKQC

[4] = target: T2, kinases (KINOMEscan panel) (Homo sapiens, UniProt P33981); settings: Published KINOMEscan; ref original PKIS2 published data; cited from earlier work
T2 sequence (P33981 1-857): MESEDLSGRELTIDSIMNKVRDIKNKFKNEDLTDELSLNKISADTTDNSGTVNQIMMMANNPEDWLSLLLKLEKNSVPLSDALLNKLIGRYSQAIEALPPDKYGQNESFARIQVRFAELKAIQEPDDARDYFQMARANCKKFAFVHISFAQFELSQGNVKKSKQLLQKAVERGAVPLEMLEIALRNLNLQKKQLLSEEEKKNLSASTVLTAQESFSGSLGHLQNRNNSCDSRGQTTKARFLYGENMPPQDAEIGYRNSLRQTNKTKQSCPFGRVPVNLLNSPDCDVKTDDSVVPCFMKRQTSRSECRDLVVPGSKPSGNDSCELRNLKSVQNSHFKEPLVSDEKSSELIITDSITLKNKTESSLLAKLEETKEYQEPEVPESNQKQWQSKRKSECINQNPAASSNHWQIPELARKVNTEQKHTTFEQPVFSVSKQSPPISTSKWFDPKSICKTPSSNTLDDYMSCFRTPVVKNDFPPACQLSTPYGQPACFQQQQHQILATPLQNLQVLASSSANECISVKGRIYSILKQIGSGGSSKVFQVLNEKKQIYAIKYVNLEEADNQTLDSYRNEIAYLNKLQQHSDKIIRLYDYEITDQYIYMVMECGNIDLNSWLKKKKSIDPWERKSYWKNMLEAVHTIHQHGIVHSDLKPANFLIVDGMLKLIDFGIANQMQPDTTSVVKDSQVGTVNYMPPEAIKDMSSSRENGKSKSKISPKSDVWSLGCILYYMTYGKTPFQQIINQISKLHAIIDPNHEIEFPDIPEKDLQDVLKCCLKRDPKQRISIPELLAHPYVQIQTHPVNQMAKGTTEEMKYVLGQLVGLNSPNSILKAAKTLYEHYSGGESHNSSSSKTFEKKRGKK

[5] = target: kinases (KINOMEscan panel) (Homo sapiens, UniProt Q9H1R3); settings: MYLK2; Published KINOMEscan; ref original PKIS2 published data; cited from earlier work
Sequence of kinases (KINOMEscan panel) (Homo sapiens, UniProt Q9H1R3) (Q9H1R3 whole entry): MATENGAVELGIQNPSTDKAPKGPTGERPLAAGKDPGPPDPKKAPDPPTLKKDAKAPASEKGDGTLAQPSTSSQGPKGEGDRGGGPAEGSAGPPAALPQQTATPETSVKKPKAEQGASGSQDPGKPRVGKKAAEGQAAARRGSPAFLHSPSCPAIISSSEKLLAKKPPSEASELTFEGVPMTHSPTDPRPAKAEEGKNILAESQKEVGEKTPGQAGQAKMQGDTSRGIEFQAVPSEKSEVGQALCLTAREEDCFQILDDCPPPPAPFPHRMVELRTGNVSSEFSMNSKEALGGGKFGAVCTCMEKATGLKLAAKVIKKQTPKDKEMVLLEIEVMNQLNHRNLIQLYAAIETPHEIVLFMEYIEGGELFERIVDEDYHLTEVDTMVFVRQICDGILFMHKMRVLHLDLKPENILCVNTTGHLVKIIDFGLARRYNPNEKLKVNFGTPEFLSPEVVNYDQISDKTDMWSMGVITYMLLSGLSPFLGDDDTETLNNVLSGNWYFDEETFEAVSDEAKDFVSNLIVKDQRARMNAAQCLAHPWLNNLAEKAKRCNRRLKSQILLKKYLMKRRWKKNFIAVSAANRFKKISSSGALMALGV

[6] = target: T3, kinases (KINOMEscan panel) (Homo sapiens, UniProt Q9UPZ9); settings: CILK1; Published KINOMEscan; ref original PKIS2 published data; cited from earlier work
T3 sequence (Q9UPZ9 1-632): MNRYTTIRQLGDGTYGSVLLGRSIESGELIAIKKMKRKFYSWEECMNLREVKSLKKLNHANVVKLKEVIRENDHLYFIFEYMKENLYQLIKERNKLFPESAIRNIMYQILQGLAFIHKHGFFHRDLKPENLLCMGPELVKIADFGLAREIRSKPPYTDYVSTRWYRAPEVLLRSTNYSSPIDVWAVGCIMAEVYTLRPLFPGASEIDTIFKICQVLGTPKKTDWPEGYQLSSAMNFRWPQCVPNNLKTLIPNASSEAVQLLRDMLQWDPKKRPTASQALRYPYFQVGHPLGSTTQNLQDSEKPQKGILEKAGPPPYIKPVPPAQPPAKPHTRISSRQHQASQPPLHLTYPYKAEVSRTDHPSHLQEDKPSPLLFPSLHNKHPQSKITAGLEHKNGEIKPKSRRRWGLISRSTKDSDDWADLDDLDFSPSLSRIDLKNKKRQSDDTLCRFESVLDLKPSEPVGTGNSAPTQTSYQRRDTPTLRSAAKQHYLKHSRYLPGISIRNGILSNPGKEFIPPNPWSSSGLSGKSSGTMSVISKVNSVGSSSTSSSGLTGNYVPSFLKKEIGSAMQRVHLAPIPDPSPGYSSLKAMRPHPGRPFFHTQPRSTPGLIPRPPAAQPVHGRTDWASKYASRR

In the case of `Cc1cccc(-c2nc(Nc3ccncc3)c3ccccc3n2)n1` [NK215], the “KINOMEscan DCLK1” value [1] is given as 14, the “KINOMEscan RET” value [2] is given as 9 and the “KINOMEscan GRK4” value [3] is given as 0. For the same molecule, the “KINOMEscan TTK” value [4] was 10, the “KINOMEscan MYLK2” value [5] was 7 and the “KINOMEscan CILK1” value [6] was 0.
